Results taken from PubChem BioAssay (NCI).
Several values for one entry are separate records, joined by “and”; a condition that tells them apart may be missing. Equal values may be shown once.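 Cells were grown in 96-well plates and exposed to each compound for 48 hours at five concentrations; endpoints were interpolated linearly between bracketing concentrations, or set to the highest concentration if not reached. GI50 marks 50% less growth. TGI: concentration producing complete growth inhibition.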

What was measured:
Test in all cases: growth of human tumour cells (NCI), 48 h
[1] = tested on: SNB-19 CNS
[2] = tested on: BT-549 breast
[3] = tested on: HOP-62 NSCLC
[4] = tested on: SNB-75 CNS
[5] = tested on: HT29 colon
[6] = tested on: M14 melanoma
[7] = tested on: DU-145 prostate
[8] = tested on: HS 578T breast
[9] = tested on: HCT-15 colon
[10] = tested on: MALME-3M melanoma

SMILES | GI50 [1] [µM] | TGI [1] | GI50 [2] [µM] | TGI [2] | GI50 [3] [µM] | TGI [3] | GI50 [4] [µM] | TGI [4] | GI50 [5] [µM] | TGI [5] | GI50 [6] [µM] | TGI [6] | GI50 [7] [µM] | TGI [7] | GI50 [8] [µM] | TGI [8] | GI50 [9] [µM] | TGI [9] [µM] | GI50 [10] [µM] | TGI [10]
CCCCCCNCCCNc1c2cc(OC)ccc2nc2cccc([N+](=O)[O-])c12 | 0.206 | 3.86 µM and 1.02 µM | 1.04 | 2.3 µM and 2.27 µM | 0.124 | 0.371 µM and 0.449 µM | 0.183 | 0.865 µM and 0.42 µM | 0.0544 | 0.407 µM and 0.353 µM | 0.143 | 0.285 µM and 0.293 µM | 0.162 | 0.338 µM and 1.36 µM | 0.242 | 1.47 µM and 0.786 µM | 0.212 | 14.4 | 0.179 | 0.199 µM and 0.422 µM
COc1cccc(CNc2ncnc3c2ncn3C2OC(CO)C(O)C2O)c1O (centres undefined) | 0.48 | > 100 µM | 0.0205 | 0.0978 µM | 0.387 | > 100 µM | 0.174 | 9.96 µM | 0.9 | > 100 µM | 0.248 | > 100 µM | 0.0733 | 1.22 µM | 0.108 | 0.577 µM | 0.138 | > 100 | 0.259 | 4.38 µM
CC(/C=C/C(O)=C1/C(=O)CNC1=O)=C\[C@@H](C)[C@H]1O[C@@]2(C)O[C@H](C(=O)[C@@H]3O[C@@]32C)[C@@H]1C |  | 55.4 µM |  | 36.3 µM |  | 43.1 µM |  | 63.1 µM |  | 47 µM |  | > 100 µM |  | 40.1 µM |  | 52.1 µM |  | 49.6 |  | 38 µM
Cn1cc(-c2cc(-c3cn(C)c4ccc(Cl)cc34)[nH]n2)c2cc(Cl)ccc21 | 4.09 | 20.1 µM | 2.03 | 5.24 µM | 7.98 | 94.8 µM | 4.25 | 30.6 µM | 3.57 | 18.1 µM | 2.15 | 5.3 µM | 9.6 | > 100 µM | 3.27 | 20 µM | 3.01 | 15.1 | 9.64 | 67.4 µM
Nc1nc(N)c2cc(Sc3ccc4ccccc4c3)ccc2n1 |  | 7.61 µM |  | 9 µM |  | 4.35 µM |  | 5.89 µM |  | 3.7 µM |  | 2.88 µM |  | 6.01 µM |  | 9.17 µM |  | 2.55 | 1.29 | 2.86 µM
Cc1cc(CCl)c(C)cc1CCl | 3.75 | 17.6 µM | 4.34 | 18.9 µM | 1.58 | 3.79 µM | 1.38 | 4.15 µM | 1.44 | 3.68 µM | 3.54 | 30.5 µM | 0.733 | 2.92 µM | 2.4 | 8.21 µM | 2.72 | 17.3 | 1.96 | 5.46 µM
FC(F)(F)c1ccc(-c2nn3ncccc3c2-c2ccnc(Nc3ccc4c(c3)OCCO4)n2)cc1 | > 25 | > 25 µM | 17.3 | > 25 µM | > 25 | > 25 µM | > 8.49 | > 25 µM | 6.03 | > 25 µM | 8.92 | > 25 µM | 16.4 | > 25 µM | 10.9 | > 25 µM | 8.18 | > 25 | 7.29 | > 25 µM
CC(C)(C)[Si](C)(C)OC1[C@@H](CNC(N)=O)O[C@@H](n2cnc3c(NC(=O)Nc4ccccc4)ncnc32)[C@H]1O[Si](C)(C)C(C)(C)C (some centres undefined) | 5.7 | 12.4 µM | 2.47 | 9.2 µM | 6.38 | 12.9 µM | 3.73 | 10.9 µM | 1.07 | 2.22 µM | 2 | 8.11 µM | 1.71 | 5.59 µM | 1.17 | 3.02 µM | 2.67 | 10.3 | 5.19 | 12.5 µM
COc1cc(F)ccc1-c1cc(Nc2cc(CS(C)(=N)=O)ccn2)ncc1F (centres undefined) | 0.0644 | > 100 µM | 0.0739 | 2.06 µM | 0.0624 | > 100 µM | 0.0663 | 0.433 µM | 0.0945 | > 100 µM | 0.0649 | > 37.6 µM | 0.0773 | > 100 µM | 0.0919 |  | 0.0491 | > 100 | 0.2 | 
COc1ccc(C2=NC(=O)NC2c2ccc(OC)cc2)cc1 (centres undefined) | 16.9 | > 100 µM | 3.89 | 29.5 µM | 15.2 | > 100 µM | 5.39 | 65 µM | 3.78 | 27.9 µM | 4.03 | 25.4 µM | 23 | > 100 µM | 7.18 | 48.5 µM | 4.78 | > 100 | 4.91 | 68.3 µM
CCOC(=O)c1sc(-c2ccc(OS(=O)(=O)C[C@]34CCC(CC3=O)C4(C)C)c(C=O)c2)nc1C | 0.898 | 2.15 µM | 0.916 | 2.48 µM | 1.21 | 3.27 µM | 0.781 | 2.8 µM | 1.23 | 3.34 µM | 1.09 | 2.45 µM | 1.55 | > 50 µM | 1.32 | 4.23 µM | 0.761 | 1.69 | 1.08 | 2.65 µM
CSc1ncnc2c1ncn2CC(=O)C1CCC2C3CCC4=CC(=O)CCC4(C)C3CCC12C (centres undefined) |  | > 100 µM |  | 9.89 µM |  | > 30.1 µM |  | 27.9 µM |  | > 100 µM |  | 8.88 µM |  | > 96.7 µM |  | > 100 µM |  | > 77.1 |  | 31.7 µM
C/C(=C(/c1ccccc1)c1ccc(OCC(O)CNCCN2CCOCC2)cc1)c1ccccc1 (centres undefined) | 4.77 | 17.8 µM | 10.1 | 22.2 µM | 2.29 | 5.69 µM | 2.68 | 15.6 µM | 2.03 | 4.86 µM | 1.88 | 3.85 µM | 4.37 | 15.7 µM | 1.77 | 4.1 µM | 2.19 | 5.4 | 1.62 | 3.04 µM
